Assay results published in US11766430B2, “Methods of using a phenoxypropylamine compound to treat pain” (Minerva Neurosciences, Inc., priority 2018, dated 2023).
Entries after “also recorded” stand apart in the source; their conditions may differ.

Columns and labels:
Format in all cases: in vivo, Male Sprague Dawley rats
[1] = system: paclitaxel-induced peripheral neuropathic pain in rats; test: Reversal of paclitaxel-induced peripheral neuropathic pain, paw withdrawal threshold, chronic administration (Example 6); settings: hydrochloride; for PWT compared to vehicle (in words): days 14, 21 and 28, 2 hours post dosing
Description: (§1) Male Sprague Dawley rats from Envigo were used in the study. Animals were received at approximately 250 g and housed 3 per cage upon arrival. All rats were examined, handled, and weighed prior to initiation of the study to assure adequate health and suitability. During the course of the study, 12/12 light/dark cycles was maintained. The room temperature was be maintained between 20 and 23° C. with a relative humidity maintained around 50%. Chow and water was provided ad libitum for the duration of the study. All testing was performed during the animal's light cycle phase.
(§2) Paclitaxel (2 mg/kg) was purchased from Biolyse Pharma and injected i.p. on four alternate days (day 1, 3, 5 and 7) for a total of 4 injections at a dose volume of 1 mL/kg.
(§3) Gabapentin (100 mg/kg) was dissolved in saline and administered orally at a dose volume of 1 mL/kg. For prevention study, gabapentin was administered on day 14, sixty minutes prior to test. For reversal study, gabapentin was administered once daily for 2 weeks. On test days it was administered 60 minutes prior to test.
Reversal study: MIN-117 (1, 3 and 10 mg/kg) was formulated in 0.5% (w/v) hydroxypropylmethyl cellulose (HPMC) 8°-120 centipoises in water and administered i.p once daily for 2 weeks at a dose volume of 1 mL/kg. On test days, MIN-117 was administered 2 hours prior to test.
(§4) Rats were administered paclitaxel (2 mg/kg) on four alternate days (days 1, 3, 5 and 7). Baseline and post treatment Paw Withdrawal Threshold (PWT) were evaluated using von Frey filaments (Semmes-Weinstein filaments, Stoelting, Wood Dale, Ill., USA) of varying stiffness (0.4, 0.7, 1.2, 2.0, 3.6, 5.5, 8.5, 10, 15, 26 g). Animals were placed on a perforated metallic platform and allowed to acclimate to their surroundings for a minimum of 15 minutes before each test session. Each filament was presented perpendicular to the plantar surface with sufficient force to cause slight buckling against the paw, and then held until a positive response is noted (paw sharply withdrawn). As described by Chaplan et al. 1994, once the threshold was crossed, the 2 responses straddling the threshold are retrospectively designated as the first 2 responses. Four additional responses were measured to stimuli varied sequentially up or down based on the animal's response. The 6 responses in the immediate vicinity of the threshold were used to calculate the 50% g threshold: 50% g threshold=(10^[Xf+k*d])/10000 Xf is the final filament used (in log units). The parameter k is from the Appendix 1 in Chaplan and was determined by the pattern of the von Frey responses (e.g. OXOXOX where ‘O’ indicates no response and ‘X’ denotes a withdrawal). The parameter d is the difference between stimuli which Chaplan used a constant d=0.224. To accommodate for the use of the 10 g and 26 g filaments, the exact difference between stimuli were used.
(§5) PWT was measured according to the Schematics in FIG. 9 (prevention) and FIG. 10 (reversal study).
(§6) Data was analyzed by analysis of variance (ANOVA) followed by post-hoc comparisons where appropriate. An effect will be considered significant if p<0.05. Data was represented as the mean and standard error to the mean (s.e.m). Statistical outliers that fell above or below 2 standard deviations of the mean were identified but not removed from the final analysis.

[2] = Body weight, prevention study (Example 6); settings: 10 mg/kg i.p. once daily for 7 or 14 days; effect seen from day 2 until day 11
Description: (§7) Body weight (BW) was measured daily during treatment and twice a week after cessation of dosing.
as §6

[3] = Body weight, reversal study (Example 6); settings: 1, 3 and 10 mg/kg i.p. once daily for 2 weeks; repeated measures ANOVA
Description: as §7, §6

[4] = system: paclitaxel-induced peripheral neuropathic pain in rats; test: Prevention of paclitaxel-induced peripheral neuropathic pain, paw withdrawal threshold, chronic administration (Example 6); settings: for PWT compared to vehicle (in words): days 10 and 14
Description: as §1, §2, §3
Prevention study: MIN-117 (10 mg/kg) was formulated in 0.5% (w/v) hydroxypropylmethyl cellulose (HPMC) 8°-120 centipoises in water and was administered i.p once daily for 7 or 14 days at a dose volume of 1 mL/kg. On test days, MIN-117 was administered 2 hours prior to test.
as §4, with “The 6 responses in the immediate vicinity of the threshold were used to calculate the 50% g threshold: 50% g threshold=(10^[Xf+k*d])/10000 Xf is the final filament used (in log units).” left out, “The parameter d is the difference between stimuli which Chaplan used a constant d=0.224. To accommodate for the use of the 10 g and 26 g filaments, the exact difference between stimuli were used.” left out
as §5
Data was analyzed by analysis of variance (ANOVA) followed by post-hoc comparisons where appropriate. […]

SMILES: Cc1nnc(-c2cc3c(OC[C@@H](O)CN4CCC(c5ccc(Cl)c(Cl)c5)CC4)cccc3o2)o1.Cl [MIN-117, (2S)-1-(4-(3,4-dichlorophenyl)piperidin-1-yl)-3-((2-(5-methyl-1,3,4-oxadiazol-2-yl)benzofuran-4-yl)oxy)propan-2-ol hydrochloride]
- PWT compared to vehicle (in words) ([1]; 1 mg/kg i.p. once daily for 2 weeks): significant increase in PWT; also recorded: significantly higher PWT
- PWT compared to vehicle (in words) ([1]; 3 mg/kg i.p. once daily for 2 weeks): significant increase in PWT; also recorded: significantly higher PWT
- PWT compared to vehicle (in words) ([1]; 10 mg/kg i.p. once daily for 2 weeks): significant increase in PWT; also recorded: significantly higher PWT
- PWT after cessation of treatment (in words) ([1]; 1, 3 and 10 mg/kg i.p., day 35, one week after cessation of treatment): no analgesic effects; also recorded: returned to vehicle levels
- Body weight compared to vehicle (in words) [2]: decrease in body weight
- Body weight during treatment compared to vehicle (in words) [3]: no significant treatment effect
- PWT after cessation of treatment (in words) ([4]; 10 mg/kg i.p. for 7 or 14 days, day 21, one week or two weeks after cessation of treatment, hydrochloride): no analgesic effects; also recorded: returned to vehicle levels
- PWT compared to vehicle (in words) ([4]; 10 mg/kg i.p. once daily for one week (7 days) starting one day prior to paclitaxel): significantly higher PWT
- PWT compared to vehicle (in words) ([4]; 10 mg/kg i.p. once daily for two weeks (14 days) starting one day prior to paclitaxel, 2 hours post dosing): significantly higher PWT
